Experimental findings from patent US20180009764A1, “METHOD FOR TREATING MACROPHAGE MIGRATION INHIBITORY FACTOR (MIF)-IMPLICATED DISEASES AND CONDITIONS WITH IODO PYRIMIDINE DERIVATIVES” (UNIVERSITY OF LOUISVILLE RESEARCH FOUNDATION, INC., priority 2009, published 2018) are described below.

Structures are written as SMILES. In brackets after ≈: the same amount, converted by molar mass.

For data set [1], the target named is T1, MIF (Mus musculus, UniProt P34884).
T1 construct: from tissue; host or cells: mouse liver (A7); liver, lung and brain of C57BL6 mice (A20)
Briefly: Oral bioavailability: ex vivo MIF enzymatic activity in liver, brain and lung after IP and PO dosing. The arrangement: species or system C57BL6 mice. The protocol: The compounds were administered orally (PO) and intraperitoneally (IP) to healthy animals. The inhibition of the MIF liver enzymatic activity determined ex vivo following IP and PO dosing is similar, indicating high oral bioavailability. Furthermore, brain and lung tissues were collected and processed to determine MIF enzymatic activity in these organs. […] Inhibition of MIF enzyme was determined […] following dosing of MIF-002 at 40 mg/kg once a day for three days, both IP and PO (normal C57BL6 mice, n=3). Tissues were collected at sacrifice and processed. Liver, lung, and brain tissues were collected, processed, and used for the determination of MIF enzyme activity. Values are expressed as a percentage calculated using DMSO as control (no inhibition).
Two additional compounds were tested, MIF-035 and MIF-041.

Data set [2] concerns DU145 human prostate xenografts. Briefly: Microvessel density in xenograft tumors (immunohistochemistry). The class given is in vivo, athymic nude mice. The settings on record: end of the DU145 xenograft experiment; FIG. 9. The protocol:
At the end of the experiment described in EXAMPLE 69 above, tumors in each group were removed and sliced. Blood vessel density of the tumor tissues was measured by immunohistochemistry. […] These in vivo results confirmed that the compounds described in this application inhibit angiogenesis.

Data set [3] in a line: Solubility in varying solvents. The class given is physicochemical. The note with it: 21 °C, 20-22° C.
Data set [4] relates to p53. Nature of the data set: p53 up regulation, p53 luciferase assay. The class given is cell-based. The note with it: 10 μM; FIG. 5. The protocol:
The up regulation of p53 was determined using a commercially available p53 luciferase assay kit. 1×10^5 cells/ml were plated in a 24 well plate and allowed to adhere overnight. MIF antagonists were added to the cells at the indicated concentrations for 16 hours and transiently co-transfected with 0.125 μg/well of p53-responsive luciferase promoter plasmid (Promega, Madison, Wis.) together with 0.0125 μg/well Renilla pRL-null plasmid (Promega) using Lipofectamine (Invitrogen) transfection reagent. After 24 hrs, Firefly and Renilla luciferase activities were measured by the Dual Luciferase Reporter Assay System (Promega, Madison, Wis.) on a TD-20/20 luminometer (Turner Designs).

Data set [5] concerns DU145 human prostate xenografts. Briefly: In vivo efficacy in DU145 xenograft tumor model. The arrangement: species or system athymic nude mice. The settings on record: daily IP 40 mg/kg for 4 weeks; FIG. 8. Here is the method:
Athymic nude mice at 7-8 weeks of age were used for the study. Mice were housed in microisolator housing, with food and water provided as libitum, and quarantined for 4 days prior to the initiation of the study. DU145 cells were maintained in McCoy's 5A medium supplemented with 10% fetal bovine serum and 2 mM glutamine. Cells at 80% confluence were harvested using 0.25% trypsin/EDTA solution, washed once with PBS and resuspended in a mixture of serum-free medium/Matrigel (1:1 by volume) at a density of 3×10^6 cells/100 μl. 4 groups of 10 mice each were used in the experiment. DU145 cells suspended in 100 μl of a mixture of medium/Matrigel (1:1) were subcutaneously implanted in the right flank region. Animals were monitored for tumor growth daily after cell implantation. When tumor volumes reached 80-100 mm^3, mice were randomized into 4 groups of 10 mice each using only mice having tumor volumes closest to the mean value. Tumor volumes were measured using the formula V=L×W×H×π/6, where L and W represent the longer and shorter diameters of the tumor and H represents the height of the tumor. Treatment began the day after randomization. Act-MIF-001, ACT-MIF-002, and ACT-MIF-003 were administered daily by IP injection at a dose of 40 mg/kg for 4 weeks. Throughout the entire study, tumor volumes were measured twice weekly and body weights once weekly.

Data set [6] relates to primary human T lymphocytes. Briefly: Anti-CD3 induced T lymphocyte activation/proliferation (flow cytometry). The note with it: 25 μM. The class given is cell-based. The protocol:
In order to assess the ability of MIF antagonists to disrupt autoimmune-associated T cell activation, primary human T lymphocytes were prepared using standard Ficoll-gradient preparations. 1×10^6 lymphocytes/ml were resuspended in RPMI/10% FCS and plated onto anti-CD3 antibodies previously immobilized onto tissue culture plates. Control, vehicle control (0.1% DMSO), 25 μM 4-IPP or 25 μM ACT-003 were added to cells and allowed to incubate for 48 hours. Cells were lifted, washed and stained with anti-CD4 or anti-CD8 antibodies and then analyzed by flow cytometry.
To validate the effects of MIF antagonists on T lymphocyte activation, experiments were set up exactly as described above and, 48 hours later, treated and untreated lymphocytes were stained with an anti-CD25 antibody. CD25 is also known as the high affinity IL-2 receptor—a very well characterized and frequently marker of T lymphocyte activation.
In order to investigate the relative kinetics of when 4-IPP and ACT-003 are acting in blocking T lymphocyte activation, we repeated the experiment described above but harvested lymphocytes only 16 hours after anti-CD3 plating. At this early time point during T lymphocyte activation, CD69 is found to be expressed and is usually considered to be an “early marker” of lymphocyte activation.
Finally, to confirm that proliferation of CD4+ and CD8+ T lymphocytes is blocked by 4-IPP-based MIF antagonists, we repeated the experiment as described above, added labeled-BrdU to cells, stained with either labeled anti-CD4 or anti-CD8 antibodies and then assessed relative CD4/CD8 and BrdU labeling in each treatment group.
In general terms: A flow cytometer gives signals particle by particle.

One may read the solubility as the concentration that dissolves in the medium under given conditions.

In the case of `COc1ccc(-c2cc(I)ncn2)c(F)c1` [ACT-MIF-002, 4-Iodo-6-(2-fluoro-4-methoxyphenyl)pyrimidine], the “Inhibition of MIF enzymatic activity in brain and lungs” value in data set [1] (40 mg/kg once a day for three days, IP and PO, FIG. 12) is “inhibits MIF enzymatic activity in both the brain and the lungs”. In addition, in data set [1] (judged from ex vivo MIF inhibition after IP and PO dosing), the Oral bioavailability result was “orally bioavailable”. Besides, the “Crossing of the blood brain barrier” value in data set [1] (judged from ex vivo MIF inhibition in brain) is “crosses the brain blood barrier”.

As for `Fc1ccccc1-c1cc(I)ncn1` [ACT-MIF-003, 4-Iodo-6-(2-fluorophenyl)pyrimidine], the “Microvessel density of tumor tissues” value in data set [2] was “decrease in microvessel density with respect to the tumors of the control group with a statistically meaningful difference”. For the same molecule, the solubility in data set [3] (aqueous with cosolvent or surfactant or cyclodextrin, Cremophor) was determined as 15 mg/mL (≈ 50 mM); in data set [3] (aqueous with cosolvent or surfactant or cyclodextrin, Ethanol/Tween 80) it was 20 mg/mL (≈ 66.7 mM); in data set [3] (oil or lipid, Corn oil), 15 mg/mL (≈ 50 mM); in data set [3] (organic solvent or mixture, DMSO), 216 mg/mL (≈ 720 mM); in data set [3] (organic solvent or mixture, Ethanol) it was 85 mg/mL (≈ 283 mM); in data set [3] (organic solvent or mixture, PEG-300), 66 mg/mL (≈ 220 mM). The solubility in data set [3] (organic solvent or mixture, Propane-diol) was found to be 25 mg/mL (≈ 83.3 mM). For the same molecule, the p53 regulation result in data set [4] is on record as “implicated in p53 regulation”. For the same molecule, the Tumor growth inhibition entry in data set [5] was “significantly inhibited tumor growth”. Besides, the CD69 expression result in data set [6] (16 hours, FIGS. 17 and 18) is given as “only a marginal effect on CD69 expression”. Moreover, the “CD4 and CD8 T lymphocytes after anti-CD3 activation” value in data set [6] (48 hours, FIGS. 13 and 14) is “significantly fewer CD4 and CD8 T lymphocytes”. Also, the “Anti-CD3-induced CD25 expression” value in data set [6] (48 hours, FIGS. 15 and 16) is recorded as “almost completely blocked the anti-CD3-induced CD25 expression”. Further, the “BrdU labeling of CD8+ and CD4+ T lymphocytes (proliferation)” value in data set [6] (48 hours, FIGS. 19 and 20) is “almost completely blocked BrdU labeling in both CD8+ and CD4+ T lymphocytes”.
